Source: patent US20200009088A1, “COMPOSITIONS AND METHODS FOR TREATING ANDROGEN-INDEPENDENT CANCER” (The Regents of the University of California, priority 2017, published 2020)
“Also recorded” adds a separate entry of the source.

What was measured:
AR = assay: Western blot of AR expression in CWR22Rv1 cell lysates; assay type: cell-based; conditions: CWR22Rv1 cells, FIG. 2A
Protocol: (§1) “AR-Variants” represents a combination of all forms of AR.
(§2) The effects of the synthetic small molecule modulators on AR and AR variant expression were determined. CWR22Ry1 prostate cancer cells were treated with different compounds. Protein lysates were analyzed for AR and AR variant expression.

PSA = PSA protein expression by ELISA in C4-2 cells overexpressing AR-V7; assay type: cell-based; conditions: C4-2-V7 cells, FIG. 3; for PSA expression: compound alone, ELISA; for enzalutamide-mediated PSA inhibition: in presence of enzalutamide (MDV)
Protocol: PSA protein expression was determined by ELISA assay. * denotes p<0.05.

CWR22Rv1 cells = assay: Cell growth assay (cell numbers), CWR22Rv1; assay type: cell-based; conditions: for synergy with abiraterone in inhibiting cell growth: CWR22Rv1, analog 0.25 μM + abiraterone 5 μM; for cell growth, combination with abiraterone: CWR22Rv1, analog 0.25 μM + abiraterone 5 μM, 0, 3, 5 days; for cell growth, combination with abiraterone / cell growth, combination with enzalutamide: FIGS. 9, 11; for cell growth, combination with bicalutamide: CWR22Rv1, analog 0.25 μM + bicalutamide 20 μM, 0, 3, 5 days; for synergy with enzalutamide in inhibiting cell growth: CWR22Rv1, analog 0.25 μM + enzalutamide 20 μM; for cell growth, combination with enzalutamide: CWR22Rv1, analog 0.25 μM + enzalutamide 20 μM, 0, 3, 5 days; for cell growth, niclosamide analog alone: CWR22Rv1, analog 0.25 μM, 0, 3, 5 days, FIGS. 9, 11, 12
Protocol: DMSO treatment was used as a negative control. Total cell numbers were counted at 0, 3, and 5 days.
DMSO treatment was used as a negative control. Total cell numbers were counted at 0, 3, and 5 days. […]
The cell growth was determined at 3,5 days. […] The cell growth was determined at 3,5 days.

C4-2B MDVR cells = assay: Cell growth assay (cell numbers), C4-2B MDVR; assay type: cell-based; conditions: for cell proliferation, combination with enzalutamide (MDV) / cell growth: C4-2B MDVR, 48 hours; for cell proliferation, combination with enzalutamide (MDV): 0.5 μM + enzalutamide, FIG. 7B; for cell growth: increasing doses of niclosamide/analogs, FIG. 6
C4-2B AbiR cells = assay: Cell growth assay (cell numbers), C4-2B AbiR; assay type: cell-based; conditions: 0.5 μM + enzalutamide, 48 hours, FIG. 7C
C4-2-V7 cells = assay: Cell growth assay (cell numbers), C4-2-V7; assay type: cell-based; conditions: C4-2-V7, 0.5 μM + enzalutamide, 48 hours, FIG. 7D
AR-FL = target: T1, AR-FL (Homo sapiens, UniProt P10275, T878A); assay: PSA-luc assay in C4-2B cells (pcDNA), AR-FL; assay type: cell-based; conditions: FBS, 1 μM overnight, FIG. 14A
T1 construct: endogenous in cells; host or cells: C4-2B cells transfected with pcDNA and the PSA-E/P-luciferase reporter
T1 sequence (P10275 whole entry T878A): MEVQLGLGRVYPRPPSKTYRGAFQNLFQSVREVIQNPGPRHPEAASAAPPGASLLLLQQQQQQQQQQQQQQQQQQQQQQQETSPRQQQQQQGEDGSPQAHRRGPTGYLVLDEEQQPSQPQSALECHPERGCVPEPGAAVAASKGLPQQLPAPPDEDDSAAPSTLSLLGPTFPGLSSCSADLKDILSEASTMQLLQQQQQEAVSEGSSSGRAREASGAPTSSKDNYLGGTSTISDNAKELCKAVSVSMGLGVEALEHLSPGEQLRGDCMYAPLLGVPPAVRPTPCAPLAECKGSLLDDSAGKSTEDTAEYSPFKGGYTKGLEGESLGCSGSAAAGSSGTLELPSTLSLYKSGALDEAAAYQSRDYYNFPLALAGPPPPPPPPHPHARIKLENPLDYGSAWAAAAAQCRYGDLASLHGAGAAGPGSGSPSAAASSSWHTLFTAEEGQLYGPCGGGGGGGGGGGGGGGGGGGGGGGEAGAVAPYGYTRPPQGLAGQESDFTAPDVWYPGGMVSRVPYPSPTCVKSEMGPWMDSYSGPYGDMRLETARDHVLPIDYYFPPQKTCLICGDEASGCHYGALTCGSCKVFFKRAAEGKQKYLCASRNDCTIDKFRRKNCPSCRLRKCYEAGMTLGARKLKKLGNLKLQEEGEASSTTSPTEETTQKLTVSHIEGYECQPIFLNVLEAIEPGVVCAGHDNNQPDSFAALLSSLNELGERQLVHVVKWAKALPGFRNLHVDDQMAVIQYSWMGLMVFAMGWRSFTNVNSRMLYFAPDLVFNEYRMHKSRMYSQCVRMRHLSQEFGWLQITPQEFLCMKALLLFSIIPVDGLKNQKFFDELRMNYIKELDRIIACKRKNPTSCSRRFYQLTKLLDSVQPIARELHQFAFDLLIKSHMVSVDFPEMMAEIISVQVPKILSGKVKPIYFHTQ
Source text: (§3) C4-2B cells were cotransfected with pcDNA, with or without AR-V1, AR-V3, AR-V7, AR-V9 or AR-V12, and with PSA-E/P-luciferase plasmids in FBS condition.

AR-V1 = target: T2, AR-V1 (Homo sapiens, UniProt P10275); assay: PSA-luc assay in C4-2B cells, AR-V1; assay type: cell-based; conditions: FBS, 1 μM overnight, FIG. 14B
T2 construct: expressed in transfected cells; host or cells: C4-2B
T2 sequence (P10275 1-648 isoform P10275-4): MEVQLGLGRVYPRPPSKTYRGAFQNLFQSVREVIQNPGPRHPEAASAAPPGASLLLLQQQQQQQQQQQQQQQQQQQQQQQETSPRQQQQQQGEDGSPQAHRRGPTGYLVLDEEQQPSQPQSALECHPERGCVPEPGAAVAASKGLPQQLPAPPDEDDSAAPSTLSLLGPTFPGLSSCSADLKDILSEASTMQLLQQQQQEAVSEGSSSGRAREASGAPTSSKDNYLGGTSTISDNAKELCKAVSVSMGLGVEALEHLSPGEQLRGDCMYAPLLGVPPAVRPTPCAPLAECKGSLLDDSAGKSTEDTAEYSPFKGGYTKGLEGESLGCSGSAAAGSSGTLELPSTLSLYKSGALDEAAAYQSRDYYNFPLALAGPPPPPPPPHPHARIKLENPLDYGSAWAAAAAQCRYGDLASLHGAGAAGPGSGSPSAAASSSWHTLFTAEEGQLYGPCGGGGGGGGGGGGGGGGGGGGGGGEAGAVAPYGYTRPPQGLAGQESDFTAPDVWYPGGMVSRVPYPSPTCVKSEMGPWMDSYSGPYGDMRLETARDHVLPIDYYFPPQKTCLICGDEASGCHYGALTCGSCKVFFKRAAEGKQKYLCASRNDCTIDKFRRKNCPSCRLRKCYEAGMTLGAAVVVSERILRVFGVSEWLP
Source text: as §3

AR-V3 = assay: PSA-luc assay in C4-2B cells, AR-V3; assay type: cell-based; conditions: FBS, 1 μM overnight, FIG. 14C
Source text: as §3

AR-V7 [1] = target: T3, AR-V7 (Homo sapiens, UniProt P10275); assay: PSA-luc assay in C4-2B cells, AR-V7; assay type: cell-based; conditions: FBS, 1 μM overnight, FIG. 14D
T3 sequence (P10275 1-644 isoform P10275-3): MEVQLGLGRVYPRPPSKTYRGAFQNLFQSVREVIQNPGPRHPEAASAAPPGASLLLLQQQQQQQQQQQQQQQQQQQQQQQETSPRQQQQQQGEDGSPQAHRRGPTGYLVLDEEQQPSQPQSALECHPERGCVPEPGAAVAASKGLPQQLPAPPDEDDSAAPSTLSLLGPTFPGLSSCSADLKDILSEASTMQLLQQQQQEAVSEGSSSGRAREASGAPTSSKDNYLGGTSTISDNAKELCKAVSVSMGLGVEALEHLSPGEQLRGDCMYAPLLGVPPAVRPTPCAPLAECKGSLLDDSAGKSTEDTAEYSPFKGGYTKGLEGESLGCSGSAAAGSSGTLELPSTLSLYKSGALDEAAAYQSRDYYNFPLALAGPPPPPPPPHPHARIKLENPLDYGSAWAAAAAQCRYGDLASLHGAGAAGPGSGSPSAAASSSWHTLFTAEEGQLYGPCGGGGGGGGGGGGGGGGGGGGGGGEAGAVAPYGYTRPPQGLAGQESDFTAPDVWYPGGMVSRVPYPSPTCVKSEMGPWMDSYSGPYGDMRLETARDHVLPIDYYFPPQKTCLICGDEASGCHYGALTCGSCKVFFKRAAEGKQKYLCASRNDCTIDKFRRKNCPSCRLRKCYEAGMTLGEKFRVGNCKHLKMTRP
Source text: as §3

AR-V9 = target: T4, AR-V9 (Homo sapiens, UniProt P10275, DEL470-473/INS56QQQQQ/L57Q); assay: PSA-luc assay in C4-2B cells, AR-V9; assay type: cell-based; conditions: FBS, 1 μM overnight, FIG. 14E
T4 construct: expressed in transfected cells; host or cells: C4-2B
T4 sequence (P10275 with tags, fused parts or gaps INS56QQQQQ/L57Q/DEL470-473 limits assumed): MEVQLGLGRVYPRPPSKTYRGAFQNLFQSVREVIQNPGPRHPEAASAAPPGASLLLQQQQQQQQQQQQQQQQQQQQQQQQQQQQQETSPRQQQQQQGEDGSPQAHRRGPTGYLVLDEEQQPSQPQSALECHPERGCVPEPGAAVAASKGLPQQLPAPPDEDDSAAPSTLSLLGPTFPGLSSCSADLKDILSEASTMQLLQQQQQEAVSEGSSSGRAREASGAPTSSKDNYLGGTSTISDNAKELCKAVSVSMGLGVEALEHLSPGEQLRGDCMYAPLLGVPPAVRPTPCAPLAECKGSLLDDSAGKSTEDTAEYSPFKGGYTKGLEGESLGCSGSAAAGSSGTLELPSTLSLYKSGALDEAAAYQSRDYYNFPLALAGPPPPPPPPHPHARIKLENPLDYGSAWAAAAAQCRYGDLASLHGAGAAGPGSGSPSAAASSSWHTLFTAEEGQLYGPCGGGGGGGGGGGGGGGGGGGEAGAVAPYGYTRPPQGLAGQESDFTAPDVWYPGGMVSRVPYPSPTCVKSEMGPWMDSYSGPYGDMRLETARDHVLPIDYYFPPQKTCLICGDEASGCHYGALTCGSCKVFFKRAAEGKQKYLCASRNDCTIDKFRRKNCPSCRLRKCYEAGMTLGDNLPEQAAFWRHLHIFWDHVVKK
Source text: as §3

AR variants = assay: AR variant protein degradation (cycloheximide, MG132, ubiquitin IP) in CWR22Rv1 cells; assay type: cell-based; conditions: FIG. 15
Protocol: as §1
To determine if the small molecule modulators affect AR-V7 protein expression via protein degradation, CWR22Rv1 and C4-2B MDVR cells were treated with cycloheximide (CHX) and the half-life of AR-V7 protein was measured.
After 0, 2, 4, and 8 hours, whole cell lysate was collected and subjected to Western blot. The half-life of AR-V7 was then calculated.
Subsequently, the whole cell lysate was collected and subjected to Western blot.
For the data shown in FIG. 15C, CWR22Rv1 cells were treated with Nic, Compound 7, or Compound 31. Subsequently, whole cell lysate was immunoprecipitated with an AR antibody and blotted with ubiquitin and AR antibodies.

in vivo = conditions: male, Sprague-Dawley, rat, in vivo, po, 200 mg/kg
Protocol: Blood samples were obtained at the time points indicated in FIG. 18 (0 minutes, 15 minutes, 30 minutes, 1 hour, 1.5 hours, 2 hours, 4 hours, 6 hours, 8 hours, and 24 hours) and the plasma was isolated for LC-MS analysis.

MDA-MB-468 cells = assay: Breast cancer cell growth, MDA-MB-468; assay type: cell-based; conditions: three days, FIG. 20A
AR-V7 [2] = target: T3, AR-V7; assay: PSA-luc reporter in LNCaP cells co-transfected with AR-V7; conditions: LNCaP cells co-transfected with AR-V7, FIG. 4
Protocol: The luciferase activity was then determined. * denotes p<0.05.
In addition, the effects on AR transcriptional activity were determined using PSA-luc as a reporter. LNCaP cells were cotransfected with PSA-luc together with or without AR-V7, and treated with the compounds.

AR-V7 [3] = target: T3, AR-V7; assay: Western blot of AR-V7 expression in CWR22Rv1 cell lysates; assay type: cell-based; set-up: endogenous in cells; host or cells: CWR22Rv1 prostate cancer cells (also grown as xenograft tumours); conditions: CWR22Rv1 cells, FIG. 2A
Protocol: as §1, §2

| Compound | AR expression (AR) | PSA expression (PSA) | enzalutamide-mediated PSA inhibition (PSA) | synergy with abiraterone in inhibiting cell growth (CWR22Rv1 cells) | cell growth, combination with abiraterone (CWR22Rv1 cells) | cell growth, combination with bicalutamide (CWR22Rv1 cells; FIG. 12) | synergy with enzalutamide in inhibiting cell growth (CWR22Rv1 cells) | cell growth, combination with enzalutamide (CWR22Rv1 cells) | cell growth, niclosamide analog alone (CWR22Rv1 cells) | cell proliferation, combination with enzalutamide (MDV) (C4-2B MDVR cells) | cell growth (C4-2B MDVR cells) | cell proliferation, combination with enzalutamide (MDV) (C4-2B AbiR cells) | cell proliferation, combination with enzalutamide (MDV) (C4-2-V7 cells) | AR-FL-mediated transcriptional activity (PSA-luc) (AR-FL) | AR-V1-mediated PSA-luc activity (AR-V1) | AR-V3-mediated PSA-luc activity (AR-V3) | AR-V7-mediated PSA-luc activity (AR-V7 [1]) | AR-V9-mediated PSA-luc activity (AR-V9) | AR variant degradation via the proteasome-ubiquitination system (AR variants) | AUC(0-inf) (in vivo) | also measured |
| --- | --- | --- | --- | --- | --- | --- | --- | --- | --- | --- | --- | --- | --- | --- | --- | --- | --- | --- | --- | --- | --- |
| O=C(Nc1ccc(C(F)(F)F)cc1Cl)c1cc(Cl)ccc1O [Compound 7] | inhibited | inhibited | further enhanced | able to synergize | able to significantly inhibit | able to significantly inhibit | able to synergize | able to significantly inhibit | None of Compounds 1, 7, 30, 31, or 34 alone were able to inhibit | further inhibited | able to inhibit cell growth in a dose-dependent manner | further inhibited | further inhibited | inhibited | inhibited | inhibited | inhibited | inhibited | degraded | 4.28 µM·h | enhancement of abiraterone treatment (cell growth) (CWR22Rv1 cells; CWR22Rv1, 0.5 μM Compound 7 + 5 μM abiraterone, 3,5 days, FIG. 17B): significantly enhanced; enhancement of apalutamide treatment (cell growth) (CWR22Rv1 cells; CWR22Rv1, 0.5 μM Compound 7 + 20 μM apalutamide, 3,5 days, FIG. 17A): significantly enhanced; AUC_% Extrap_obs (in vivo): 15.35 +/− 3.08%; HL_Lambda_z (in vivo): 580.54 ± 86.4 min; breast cancer cell growth (MDA-MB-468 cells): inhibited; AR-V7 mediated PSA-luc activity (AR-V7 [2]): inhibited; AR-V7 (AR variant) expression (AR-V7 [3]): inhibited |
| C=CC(=O)Oc1ccc(Cl)cc1C(=O)Nc1ccc([N+](=O)[O-])cc1Cl [Compound 31] | inhibited | inhibited; also recorded: strongest effect | further enhanced | able to synergize | significantly inhibited | able to significantly inhibit | able to synergize | significantly inhibited | None of Compounds 1, 7, 30, 31, or 34 alone were able to inhibit | further inhibited | able to inhibit cell growth in a dose-dependent manner | further inhibited | further inhibited | inhibited | inhibited | inhibited | inhibited | inhibited | degraded | 6.48 µM·h | synergy with bicalutamide in inhibiting cell growth (CWR22Rv1 cells; CWR22Rv1, analog 0.25 μM + bicalutamide 20 μM, FIG. 12): able to synergize; synergy with abiraterone in inhibiting cell growth (C4-2B MDVR cells; C4-2BMDVR, analog 0.25 μM + abiraterone 5 μM, FIG. 10): able to synergize; synergy with enzalutamide in inhibiting cell growth (C4-2B MDVR cells; C4-2BMDVR, analog 0.25 μM + enzalutamide 20 μM, FIG. 10): able to synergize; AUC(0-t) (in vivo): 6.37 µM·h; AUC_% Extrap_obs (in vivo): 2.3 +/− 1.85%; Cmax (in vivo): 2690 nM; HL_Lambda_z (in vivo): 276.51 ± 92.17 min; Tmax (in vivo): 25 min; Cmax (in vivo; Cmax): 2680 nM; breast cancer cell growth (MDA-MB-468 cells): inhibited; AR-V7 mediated PSA-luc activity (AR-V7 [2]): inhibited; AR-V7 (AR variant) expression (AR-V7 [3]): inhibited |
